Experimental data: patent publication US10765128B2, “Composition for prevention or treatment of metabolic syndrome or for antioxidation containing black bean leaf extracts and flavonol glysosides isolated therefrom as active ingredients” (KOREA RESEARCH INSTITUTE OF BIOSCIENCE AND BIOTECHNOLOGY, priority 2015, dated 2020)
Where two headings read alike, the source gives them in different places.

Legend:
[1] = test system: LDL (low-density lipoprotein); assay: LDL-antioxidant activity, Cu2+-induced LDL oxidation (TBARS method); type: biochemical; conditions: for LDL Oxidation Inhibitory Activity: sample concentration 100 μM; for IC50: read-out: LDL Oxidation Inhibitory Activity, IC50 value
Source text: Med. Chemn. Lett. 14: 2719-2723, 2004). Results thereof were shown in a following Table 9.

[2] = DPPH radical scavenging activity; conditions: sample concentration 50 μM
Procedure: Two mL of a DPP solution was mixed in 1 mL of a test substance solution, after which a resulting mixture was stirred well. An optical density was measured at 517 nm at an interval of 1 minute for 20 minutes by using an UV/Vis spectrophotometer to evaluate the degree of DPPH radical scavenging activity.

[3] = biological target: α-glucosidase (EC 3.2.1.20, Baker Yeast) (Saccharomyces cerevisiae, UniProt P53341); assay: α-glucosidase inhibitory activity (nitrophenol method); type: biochemical; conditions: sample concentration 100 μM
Procedure: Specifically, the α-glucosidase inhibitory activity was performed using the nitrophenol method as described by Kato, et al., (J. Med. Chem 48: 2036-2044, 2005) with slight modification. An accumulation amount was measured by the optical density of a chromophoric group of monosaccharides such as glucose, which was generated by hydrolysis of a substrate p-nitrophenyl-[…] (Sigma-Aldrich) by means of α-glucosidase (EC 3.2.1.20, Baker Yeast).
Fifty μl of a buffer solution (70 mM calcium phosphate, pH 6.8), 50 μl of a sample extract or a compound dissolved in 50% DMSO, and 50 μl of α-glucosidase (0.1 unit/ml) were injected into a 96-well plate (NUNC™ Co.) and a substrate (5 mM, p-nitrophenyl-α-D-glucopyranoside) was finally added therein, after which a resulting plate was reacted at 37° C. for 30 minutes, such that 2 M NaOH was added therein to finish a reaction thereof. An amount of a chromophoric group generated was measured at 405 nm by using a microplate reader (ANTHOS™ Co.) to calculate an inhibitory activity.

human recombinant DPP-IV = biological target: T1, human recombinant DPP-IV (Homo sapiens, UniProt P27487); assay: DPP-4 inhibitory activity (Ala-Pro-AFC substrate, fluorometer); type: biochemical; conditions: for inhibition at 200 µM: read-out: DPP-4 Inhibitory Activity (%); for DPP-4 Inhibitory Activity (%): 200 µM
T1 construct: purchased ProSpec
Procedure: Particularly, the black soybean (Seoritae) leaf extract (100 μg/ml) and the flavonol glycoside compound (200 μM) were dissolved in DMSO to prepare a sample solution. Then, 10 μl of a human recombinant DPP-IV (ProSpec, the U.S.) at a concentration of 1 μg/ml, 78 μl of an incubation buffer solution (50 mM Tris, pH 7.5), and 2 μl of the sample solution prepared above were added to a 96-well microplate, after which 16 μl (a final concentration reached 40 μM) of a substrate alanine-proline-7-amino-4-trifluoromethyl-coumarin (Ala-Pro-AFC) (Enzyme System Product Co.) was added therein, and initiated the reaction. After a reaction progressed at a room temperature for 60 minutes, an amount of AFC, which was a product generated, was measured by using a fluorometer, and identified DPP4 inhibitory activities of the black soybean (Seoritae) leaf extract and the flavonol glycoside compounds by means of Equation 1. […] DPP-4Inhibitory activity (%)=100−(A/A1×100) [Equation 1]
A: AFC concentration of sample
A1: AFC concentration of a negative control group

MIN6 β-cells = assay: insulin secretion in 30 mM glucose-induced MIN6 β-cells (ELISA insulin kit); type: cell-based, mouse; conditions: for increase in amount of insulin secretion relative to its aglycone: 100 μM, Formula 4 vs quercetin, Formula 7 vs isorhamnetin; for activation at 100 µM: Mus musculus, MIN6, 0.5 h, sample concentration 100 μM, read-out: Increase (%) in Insulin Secretion Amount in 30 mM Glucose-induced MIN6 Pancreatic β-Cells
Procedure: MIN6 β-cells, which is a mouse pancreatic. β-cell strain, was cultured in DMEM (Lonza Co.) containing 15% FBS (Gibco Co.), 100 units/ml penicillin, and 100 μg/ml streptomycin at 37° C. in a humid 5% CO2 incubator.
MIN6 cells were seeded into a 24-well plate (1×10^5 cells/well) and cultured at 37° C. in a humid 5% CO2 Incubator. In 48 hours later, the medium was first replaced with a DMEM without glucose contained therein, after which a resulting medium was left alone for 60 minutes, such that the black soybean (seoritae) leaf extract and the flavonol glycoside compounds, samples of the present invention, were treated at a certain concentration, into the DMEM with 30 mM glucose contained therein, thus being reacted for 30 minutes. A control group was one without a sample added therein under the same condition as described above, and the insulin secreted into the medium was measured by using an ELISA insulin kit (Alpco diagnostics). […]

RAW264.7 cells = assay: ROS accumulation inhibitory activity in LPS-stimulated RAW264.7 cells (DCFH2-DA); type: cell-based; conditions: Mus musculus, sample concentration 100 μM, LPS 1 μg/ml
Procedure: A test substance for each concentration was prepared with DMEM, after which the test substance was added by each 100 μL/well therein, thus being reacted for 2 hours. Then, the cells were stimulated for 18 hours with LPS (1 μg/ml) treatment, such that DCFH2-DA (2′,7′-dichlorofluorescein diacetate) was added therein at a final concentration of 15 μM, thus being reacted for 30 minutes. Once a reaction was finished, the cells were washed five times with PBS and which a fluorescence value of DCF was measured on a spectrofluorimeter (480/530, ex/em). (Hayakaya M. et. al., EMBO J., 22: 3356-3866, 2003).

T1 sequence (P27487 whole entry): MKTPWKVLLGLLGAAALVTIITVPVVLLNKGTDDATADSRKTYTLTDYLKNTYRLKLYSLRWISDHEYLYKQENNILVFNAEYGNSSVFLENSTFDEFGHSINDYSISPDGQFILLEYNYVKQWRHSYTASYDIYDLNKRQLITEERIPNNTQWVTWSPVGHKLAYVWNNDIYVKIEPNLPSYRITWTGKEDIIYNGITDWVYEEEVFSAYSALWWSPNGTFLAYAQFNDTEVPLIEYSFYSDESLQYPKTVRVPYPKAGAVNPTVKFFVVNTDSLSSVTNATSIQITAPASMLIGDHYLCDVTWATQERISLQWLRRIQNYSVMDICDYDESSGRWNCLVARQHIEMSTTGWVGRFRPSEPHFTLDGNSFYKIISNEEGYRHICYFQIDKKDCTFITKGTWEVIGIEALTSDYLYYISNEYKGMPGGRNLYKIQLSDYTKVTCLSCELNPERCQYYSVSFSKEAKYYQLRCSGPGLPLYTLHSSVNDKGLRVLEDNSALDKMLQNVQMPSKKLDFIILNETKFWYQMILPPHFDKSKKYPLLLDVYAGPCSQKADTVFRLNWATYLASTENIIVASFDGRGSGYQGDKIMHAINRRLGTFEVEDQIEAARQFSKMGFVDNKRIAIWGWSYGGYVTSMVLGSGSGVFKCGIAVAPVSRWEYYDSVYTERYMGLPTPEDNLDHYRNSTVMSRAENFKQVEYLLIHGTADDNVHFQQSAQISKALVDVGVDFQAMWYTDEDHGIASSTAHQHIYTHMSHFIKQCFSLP
Sequence of α-glucosidase (EC 3.2.1.20, Baker Yeast) (P53341 whole entry): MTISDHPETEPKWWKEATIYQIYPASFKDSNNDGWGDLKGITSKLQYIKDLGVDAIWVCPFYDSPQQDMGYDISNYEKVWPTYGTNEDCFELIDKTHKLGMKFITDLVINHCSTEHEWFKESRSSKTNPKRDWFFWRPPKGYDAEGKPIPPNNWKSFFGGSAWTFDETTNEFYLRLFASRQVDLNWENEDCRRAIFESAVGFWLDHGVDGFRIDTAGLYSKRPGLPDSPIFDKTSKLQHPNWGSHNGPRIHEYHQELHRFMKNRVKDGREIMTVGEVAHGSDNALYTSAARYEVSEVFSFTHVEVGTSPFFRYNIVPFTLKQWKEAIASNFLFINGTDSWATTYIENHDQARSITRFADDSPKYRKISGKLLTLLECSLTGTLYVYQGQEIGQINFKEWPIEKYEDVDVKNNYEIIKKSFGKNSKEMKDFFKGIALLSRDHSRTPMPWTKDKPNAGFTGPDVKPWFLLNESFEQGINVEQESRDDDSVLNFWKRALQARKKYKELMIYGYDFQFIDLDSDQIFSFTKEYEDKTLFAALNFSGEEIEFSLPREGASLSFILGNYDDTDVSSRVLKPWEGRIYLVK

Structure (SMILES): O=c1c(O[C@@H]2OC(CC[C@@H]3OC(O)[C@H](O)C(O)C3O)[C@H](O)C(O)C2O[C@@H]2OC(CO)[C@@H](O)C(O)C2O)c(-c2ccc(O)cc2)oc2cc(O)cc(O)c12 (some centres unmarked) [Comparative Example 2, reference compound]
- LDL Oxidation Inhibitory Activity [1]: 28.4%
- DPPH Radical Scavenging Activity [2]: 8.0 ± 0.7%

Structure (SMILES): O=c1c(O[C@@H]2OC(CO)[C@@H](O)C(O)C2O[C@@H]2OC(CO)[C@@H](O)C(O)C2O)c(-c2ccc(O)c(O)c2)oc2cc(O)cc(O)c12 (stereo partly drawn) [Formula 4, quercetin 3-O-(2-β-D-glucopyranosyl)-β-D-glucopyranoside]
- inhibition at 100 µM [3]: 23.4 ± 2.3%
- inhibition at 200 µM (human recombinant DPP-IV; sample concentration 200 μM): 42.5 ± 1.5%
- increase in amount of insulin secretion relative to its aglycone (MIN6 β-cells): twice
- activation at 100 µM (MIN6 β-cells): 63.6 ± 2.6%
- IC50 [1]: 2300 nM
- DPPH Radical Scavenging Activity [2]: 59.5 ± 0.5%
- inhibition at 100 µM (RAW264.7 cells): 26 ± 1.9%

Structure (SMILES): O=c1c(O)c(-c2ccc(O)cc2)oc2cc(O)cc(O)c12 [Kaempferol, reference compound]
- activation at 100 µM (MIN6 β-cells): ≤ 19%

Structure (SMILES): C[C@@H]1O[C@@H](OC[C@H]2O[C@@H](Oc3c(-c4ccc(O)c(O)c4)oc4cc(O)cc(O)c4c3=O)[C@H](O[C@@H]3O[C@H](CO)[C@@H](O)[C@H](O)[C@H]3O)[C@@H](O)[C@H]2O)[C@H](O)[C@H](O)[C@H]1O [Formula 1, quercetin 3-O-β-D-glucopyranosyl-(1→2)-[α-L-rhamnopyranosyl-(1→6)]-β-D-galactopyranoside]
- inhibition at 100 µM [3]: 10.8 ± 0.8%
- inhibition at 200 µM (human recombinant DPP-IV; sample concentration 200 μM): 48.4 ± 1%
- activation at 100 µM (MIN6 β-cells): 2.1 ± 0.1%
- IC50 [1]: 1800 nM
- DPPH Radical Scavenging Activity [2]: 60.3 ± 1.4%
- inhibition at 100 µM (RAW264.7 cells): 37.3 ± 1.8%

Structure (SMILES): C[C@@H]1O[C@@H](OC[C@H]2O[C@@H](Oc3c(-c4ccc(O)c(O)c4)oc4cc(O)cc(O)c4c3=O)[C@H](O[C@@H]3O[C@H](CO)[C@@H](O)[C@H](O)[C@H]3O)[C@@H](O)[C@@H]2O)[C@H](O)[C@H](O)[C@H]1O [Formula 2, quercetin 3-O-β-D-glucopyranosyl-(1→2)-[α-L-rhamnopyranosyl-(1→6)]-β-D-glucopyranoside]
- inhibition at 100 µM [3]: 8.7 ± 2%
- inhibition at 200 µM (human recombinant DPP-IV; sample concentration 200 μM): 42.2 ± 0.9%
- activation at 100 µM (MIN6 β-cells): 25.3 ± 3.3%
- IC50 [1]: 1900 nM
- DPPH Radical Scavenging Activity [2]: 52.0 ± 0.1%
- inhibition at 100 µM (RAW264.7 cells): 31.8 ± 1.7%

Structure (SMILES): O=c1c(O[C@@H]2OC(CC[C@@H]3OC(O)[C@H](O)C(O)C3O)[C@H](O)C(O)C2O[C@@H]2OC(O)[C@H](O)C(O)C2O)c(-c2ccc(O)cc2)oc2cc(O)cc(O)c12 (some centres unmarked) [Comparative Example 3, reference compound]
- activation at 100 µM (MIN6 β-cells): ≤ 19%
- DPPH Radical Scavenging Activity [2]: 4.0 ± 0.6%

Structure (SMILES): O=c1c(O[C@@H]2OC(CO)[C@H](O)C(O)C2O[C@@H]2OC(CO)[C@@H](O)C(O)C2O)c(-c2ccc(O)c(O)c2)oc2cc(O)cc(O)c12 (stereo partly drawn) [Formula 3, quercetin 3-O-(2-β-D-glucopyranosyl)-β-D-galactopyranoside]
- inhibition at 100 µM [3]: 63.9 ± 0.2%
- inhibition at 200 µM (human recombinant DPP-IV; sample concentration 200 μM): 46.7 ± 1.5%
- activation at 100 µM (MIN6 β-cells): 37.8 ± 5.4%
- IC50 [1]: 2100 nM
- DPPH Radical Scavenging Activity [2]: 64.8 ± 0.9%
- inhibition at 100 µM (RAW264.7 cells): 44.1 ± 2.8%

Structure (SMILES): O=c1c(-c2ccc(O)cc2)coc2cc(O[C@@H]3O[C@H](CO)[C@@H](O)[C@H](O)[C@H]3O)cc(O)c12 [Comparative Example 4, Genistin, reference compound]
- LDL Oxidation Inhibitory Activity [1]: 41.3%
- DPPH Radical Scavenging Activity [2]: 3.4 ± 0.7%

Structure (SMILES): O=c1c(O)c(-c2ccc(O)c(O)c2)oc2cc(O)cc(O)c12 [Quercetin, reference compound]
- DPP-4 Inhibitory Activity (%) (human recombinant DPP-IV; sample concentration 200 μM): 14.5 ± 1.5%
- DPP-4 Inhibitory Activity (%) (human recombinant DPP-IV; sample concentration 200 μM, listed as quercetin): 145%
- activation at 100 µM (MIN6 β-cells): 35.6 ± 3.4%

Structure (SMILES): COc1cc(-c2oc3cc(O)cc(O)c3c(=O)c2O)ccc1O [Isorhamnetin, reference compound]
- inhibition at 200 µM (human recombinant DPP-IV; sample concentration 200 μM): 21.6%
- activation at 100 µM (MIN6 β-cells): 26.6 ± 4.1%

Structure (SMILES): COc1cc(-c2oc3cc(O)cc(O)c3c(=O)c2O[C@@H]2OC(CO)[C@H](O)C(O)C2O[C@@H]2OC(C)[C@H](O)C(O)C2O)ccc1O (stereo partly drawn) [Formula 7, isorhamnetin 3-O-α-L-rhamnopyranosyl-(1→2)-β-D-galactopyranoside]
- inhibition at 100 µM [3]: 22.7 ± 0.9%
- inhibition at 200 µM (human recombinant DPP-IV; sample concentration 200 μM): 48.1%
- increase in amount of insulin secretion relative to its aglycone (MIN6 β-cells): four
- activation at 100 µM (MIN6 β-cells): 106 ± 5.1%
- LDL Oxidation Inhibitory Activity [1]: 55.7%
- DPPH Radical Scavenging Activity [2]: 7.5 ± 0.6%
- inhibition at 100 µM (RAW264.7 cells): 21.9 ± 0.6%

Structure (SMILES): CC1O[C@@H](OC2C(O)[C@@H](O)C(CO)O[C@H]2Oc2c(-c3ccc(O)c(O)c3)oc3cc(O)cc(O)c3c2=O)C(O)C(O)[C@H]1O (stereo partly drawn) [Formula 5, quercetin 3-O-(2-α-D-rhamnopyranosyl)-β-D-galactopyranoside]
- inhibition at 100 µM [3]: 17.6 ± 2.3%
- inhibition at 200 µM (human recombinant DPP-IV): 48.7 ± 0.4%
- activation at 100 µM (MIN6 β-cells): 24.3 ± 2.7%
- IC50 [1]: 400 nM
- DPPH Radical Scavenging Activity [2]: 85.9 ± 0.4%
- inhibition at 100 µM (RAW264.7 cells): 23.7 ± 1.4%

Structure (SMILES): COc1cc(-c2oc3cc(O)cc(O)c3c(=O)c2O[C@@H]2OC(CO)[C@H](O)C(O)C2O[C@@H]2OC(CO)[C@@H](O)C(O)C2O)ccc1O (stereo partly drawn) [Formula 6, isorhamnetin 3-O-(2-β-D-glucopyranosyl)-β-D-galactopyranoside]
- inhibition at 100 µM [3]: 26.2 ± 1.7%
- inhibition at 200 µM (human recombinant DPP-IV; sample concentration 200 μM): 39.4%
- activation at 100 µM (MIN6 β-cells): 38.5 ± 3.3%
- LDL Oxidation Inhibitory Activity [1]: 65.7%
- DPPH Radical Scavenging Activity [2]: 11.5 ± 0.5%
- inhibition at 100 µM (RAW264.7 cells): 58.8 ± 0.9%
